Patent publication US10000489B2, “Compounds αvβ6 integrin antagonists” (GlaxoSmithKline Intellectual Property Development Limited, priority 2014, dated 2018)
Counter-ions that a name gives are not always drawn. Like-named read-outs stand apart in the source and are kept apart here.

Assays:
Assay type in all cases: cell-based
αvβ8 = target: T1, αvβ8 (Homo sapiens, UniProt P06756+P26012); assay: Cell adhesion assay, K562-αvβ8 (LAP-b1); settings: read-out: αvβ8 pIC50 (converted)
T1 construct: expressed in transfected cells; host or cells: K562
T1 sequence (P06756 31-889 limits assumed): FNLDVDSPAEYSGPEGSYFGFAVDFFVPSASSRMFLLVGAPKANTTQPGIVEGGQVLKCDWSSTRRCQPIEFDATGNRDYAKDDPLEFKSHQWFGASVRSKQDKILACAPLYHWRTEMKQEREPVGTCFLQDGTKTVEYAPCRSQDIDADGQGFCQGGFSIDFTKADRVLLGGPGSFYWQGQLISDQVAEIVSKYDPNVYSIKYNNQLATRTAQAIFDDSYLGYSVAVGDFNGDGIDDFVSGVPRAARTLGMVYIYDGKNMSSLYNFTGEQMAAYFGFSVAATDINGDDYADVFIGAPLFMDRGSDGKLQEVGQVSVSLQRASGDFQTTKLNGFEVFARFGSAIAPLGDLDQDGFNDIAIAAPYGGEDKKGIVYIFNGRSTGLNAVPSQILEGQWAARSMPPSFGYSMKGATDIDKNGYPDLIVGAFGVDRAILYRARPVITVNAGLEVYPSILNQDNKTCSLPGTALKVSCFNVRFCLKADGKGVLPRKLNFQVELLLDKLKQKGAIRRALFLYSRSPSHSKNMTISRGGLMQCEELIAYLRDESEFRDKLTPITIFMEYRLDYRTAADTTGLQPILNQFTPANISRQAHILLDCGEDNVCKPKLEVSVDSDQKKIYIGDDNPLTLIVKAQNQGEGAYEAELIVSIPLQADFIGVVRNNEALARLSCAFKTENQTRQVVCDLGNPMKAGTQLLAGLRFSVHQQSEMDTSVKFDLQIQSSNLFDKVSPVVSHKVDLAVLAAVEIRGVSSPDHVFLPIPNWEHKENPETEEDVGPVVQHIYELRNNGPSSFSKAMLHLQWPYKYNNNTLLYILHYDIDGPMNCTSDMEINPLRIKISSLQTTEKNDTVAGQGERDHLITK
T1 sequence (P06756 891-1048 partner limits assumed): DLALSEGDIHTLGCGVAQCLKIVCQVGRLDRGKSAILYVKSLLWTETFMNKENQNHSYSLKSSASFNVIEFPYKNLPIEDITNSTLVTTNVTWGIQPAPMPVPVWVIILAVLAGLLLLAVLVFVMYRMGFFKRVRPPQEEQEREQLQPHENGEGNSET
T1 sequence (P26012 43-769): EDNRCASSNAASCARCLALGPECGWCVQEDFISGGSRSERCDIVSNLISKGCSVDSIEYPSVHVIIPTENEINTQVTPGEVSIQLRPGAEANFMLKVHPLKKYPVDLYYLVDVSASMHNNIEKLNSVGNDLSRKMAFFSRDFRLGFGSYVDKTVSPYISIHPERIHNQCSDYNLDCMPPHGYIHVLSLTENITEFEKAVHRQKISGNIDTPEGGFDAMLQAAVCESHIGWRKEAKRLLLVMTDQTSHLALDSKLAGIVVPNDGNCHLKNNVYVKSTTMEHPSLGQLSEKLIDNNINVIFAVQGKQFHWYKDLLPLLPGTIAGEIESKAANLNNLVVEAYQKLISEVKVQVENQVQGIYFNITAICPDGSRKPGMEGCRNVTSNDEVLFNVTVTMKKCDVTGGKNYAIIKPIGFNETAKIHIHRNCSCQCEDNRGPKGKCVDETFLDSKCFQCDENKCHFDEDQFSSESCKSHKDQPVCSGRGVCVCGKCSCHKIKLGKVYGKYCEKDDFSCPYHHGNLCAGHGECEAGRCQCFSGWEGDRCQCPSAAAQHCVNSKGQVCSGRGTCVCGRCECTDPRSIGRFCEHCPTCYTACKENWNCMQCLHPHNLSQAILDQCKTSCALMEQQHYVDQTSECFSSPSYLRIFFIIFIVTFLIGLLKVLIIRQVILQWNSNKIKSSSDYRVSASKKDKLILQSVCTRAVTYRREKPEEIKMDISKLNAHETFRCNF
Description: (§1) The following cell lines were used, with ligands in brackets: K562-αvβ3 (LAP-b1), K562-αvβ5 (Vitronectin), K562-αvβ6 (LAP-b1), K562-αvβ8 (LAP-b1), A549-αvβ1 (LAP-b1). The divalent cation used to facilitate adhesion was 2 mM MgCl2. Adhesion was quantified by cell labelling with the fluorescent dye BCECF-AM (Life Technologies), where cell suspensions at 3×10^6 cells/mL were incubated with 0.33 uL/mL of 30 mM BCECF-AM at 37° C. for 10 minutes, then 50 μL/well were dispensed into the 96-well assay plate. At the assay conclusion cells that adhered were lysed using 50 μL/well of 0.5% Triton X-100 in H2O to release fluorescence. Fluorescence intensity was detected using an Envision® plate reader (Perkin Elmer). For active antagonists in the assay, data were fitted to a 4 parameter logistic equation for IC50 determinations.
Figures quoted are Mean pIC50 values.

αvβ1 = target: T2, αvβ1 (Homo sapiens, UniProt P05556+P06756); assay: Cell adhesion assay, A549-αvβ1 (LAP-b1)
T2 construct: host or cells: A549
T2 sequence (P06756 31-889 limits assumed): as the sequence (P06756 31-889 limits assumed) above
T2 sequence (P06756 891-1048 partner limits assumed): as the sequence (P06756 891-1048 partner limits assumed) above
T2 sequence (P05556 21-798): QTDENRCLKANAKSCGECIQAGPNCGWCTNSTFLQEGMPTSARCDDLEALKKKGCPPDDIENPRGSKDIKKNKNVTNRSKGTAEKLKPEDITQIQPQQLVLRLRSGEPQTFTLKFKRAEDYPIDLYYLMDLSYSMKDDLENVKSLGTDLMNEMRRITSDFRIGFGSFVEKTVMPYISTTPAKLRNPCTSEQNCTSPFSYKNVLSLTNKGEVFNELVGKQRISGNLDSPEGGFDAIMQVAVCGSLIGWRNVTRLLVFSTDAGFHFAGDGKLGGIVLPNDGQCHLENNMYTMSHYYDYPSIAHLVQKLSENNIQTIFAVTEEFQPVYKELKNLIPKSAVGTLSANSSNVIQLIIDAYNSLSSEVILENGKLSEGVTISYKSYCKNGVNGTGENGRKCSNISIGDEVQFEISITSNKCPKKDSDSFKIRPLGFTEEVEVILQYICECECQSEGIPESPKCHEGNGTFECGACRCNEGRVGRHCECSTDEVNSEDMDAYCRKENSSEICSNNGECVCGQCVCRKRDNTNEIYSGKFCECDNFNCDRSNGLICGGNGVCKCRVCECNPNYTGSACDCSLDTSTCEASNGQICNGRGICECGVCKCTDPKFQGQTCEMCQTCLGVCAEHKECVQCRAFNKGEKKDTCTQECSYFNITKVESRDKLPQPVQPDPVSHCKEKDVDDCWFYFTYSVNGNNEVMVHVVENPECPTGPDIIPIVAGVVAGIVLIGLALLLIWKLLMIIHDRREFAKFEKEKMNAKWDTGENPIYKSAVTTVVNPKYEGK
Description: as §1
Figures quoted are Mean pIC50 values.

αvβ5 = target: T3, αvβ5 (Homo sapiens, UniProt P06756+P18084); assay: Cell adhesion assay, K562-αvβ5 (Vitronectin); settings: read-out: αvβ5 pIC50 (converted)
T3 construct: expressed in transfected cells; host or cells: K562
T3 sequence (P06756 31-889 limits assumed): as the sequence (P06756 31-889 limits assumed) above
T3 sequence (P06756 891-1048 partner limits assumed): as the sequence (P06756 891-1048 partner limits assumed) above
T3 sequence (P18084 24-799): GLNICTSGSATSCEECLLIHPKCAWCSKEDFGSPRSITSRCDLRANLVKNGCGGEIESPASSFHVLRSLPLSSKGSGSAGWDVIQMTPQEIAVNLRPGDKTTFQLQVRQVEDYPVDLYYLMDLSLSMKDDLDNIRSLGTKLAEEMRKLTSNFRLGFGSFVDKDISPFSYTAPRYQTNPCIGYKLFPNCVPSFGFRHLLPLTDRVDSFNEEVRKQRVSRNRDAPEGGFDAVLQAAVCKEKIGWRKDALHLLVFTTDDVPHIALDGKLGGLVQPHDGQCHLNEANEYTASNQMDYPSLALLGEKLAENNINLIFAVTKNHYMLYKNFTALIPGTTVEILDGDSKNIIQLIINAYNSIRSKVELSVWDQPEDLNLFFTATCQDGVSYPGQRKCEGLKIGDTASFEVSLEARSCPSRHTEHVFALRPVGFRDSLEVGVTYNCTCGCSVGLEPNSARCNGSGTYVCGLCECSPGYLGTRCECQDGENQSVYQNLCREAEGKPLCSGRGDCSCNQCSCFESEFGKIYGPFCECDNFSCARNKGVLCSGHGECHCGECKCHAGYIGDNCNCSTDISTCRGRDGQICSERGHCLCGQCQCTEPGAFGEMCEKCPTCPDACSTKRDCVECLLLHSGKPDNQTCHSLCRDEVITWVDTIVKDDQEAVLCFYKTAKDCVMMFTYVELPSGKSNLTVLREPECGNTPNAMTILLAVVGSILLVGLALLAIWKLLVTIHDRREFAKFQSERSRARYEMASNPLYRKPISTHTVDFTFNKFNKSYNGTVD
Description: as §1
Figures quoted are Mean pIC50 values.

αvβ3 = target: T4, αvβ3 (Homo sapiens, UniProt P05106+P06756); assay: Cell adhesion assay, K562-αvβ3 (LAP-b1); settings: read-out: αvβ3 pIC50 (converted)
T4 construct: expressed in transfected cells; host or cells: K562
Description: as §1
Figures quoted are Mean pIC50 values.

αvβ6 = target: T5, αvβ6 (Homo sapiens, UniProt P06756+P18564); assay: Cell adhesion assay, K562-αvβ6 (LAP-b1); settings: read-out: αvβ6 pIC50 (converted)
T5 construct: expressed in transfected cells; host or cells: K562
T5 sequence (P06756 31-889 limits assumed): as the sequence (P06756 31-889 limits assumed) above
T5 sequence (P06756 891-1048 partner limits assumed): as the sequence (P06756 891-1048 partner limits assumed) above
T5 sequence (P18564 22-788): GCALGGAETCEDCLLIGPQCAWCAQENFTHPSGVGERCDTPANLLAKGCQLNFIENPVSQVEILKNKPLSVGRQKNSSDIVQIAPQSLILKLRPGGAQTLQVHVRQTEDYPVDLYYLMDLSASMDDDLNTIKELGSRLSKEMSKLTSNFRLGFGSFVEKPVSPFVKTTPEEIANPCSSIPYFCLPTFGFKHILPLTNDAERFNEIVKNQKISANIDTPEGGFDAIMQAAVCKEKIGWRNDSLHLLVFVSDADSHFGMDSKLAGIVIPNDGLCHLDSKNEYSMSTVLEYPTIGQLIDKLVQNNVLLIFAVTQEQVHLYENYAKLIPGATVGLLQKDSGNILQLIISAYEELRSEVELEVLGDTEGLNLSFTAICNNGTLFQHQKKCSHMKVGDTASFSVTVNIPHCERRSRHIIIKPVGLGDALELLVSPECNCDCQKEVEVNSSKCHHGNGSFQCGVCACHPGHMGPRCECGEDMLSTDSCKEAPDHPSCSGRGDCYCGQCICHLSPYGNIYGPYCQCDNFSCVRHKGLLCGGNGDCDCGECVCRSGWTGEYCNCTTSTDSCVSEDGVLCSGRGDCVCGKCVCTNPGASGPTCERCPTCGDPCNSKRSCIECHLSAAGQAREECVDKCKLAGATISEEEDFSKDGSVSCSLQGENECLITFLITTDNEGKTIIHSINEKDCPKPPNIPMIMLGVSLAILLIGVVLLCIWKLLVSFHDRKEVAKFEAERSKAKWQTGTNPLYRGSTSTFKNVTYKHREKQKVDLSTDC
Description: as §1
Figures quoted are Mean pIC50 values.

[1] = cell adhesion, A549-αvβ1 cells, ligand LAP-b1, 2 mM MgCl2, mean pIC50

Row | Structure (SMILES) | IC50 (αvβ8) [µM] | IC50 (αvβ1; [1]) [µM] | IC50 (αvβ5) [µM] | IC50 (αvβ3) [µM] | IC50 (αvβ1; read-out: αvβ1 pIC50 (converted)) [µM] | IC50 (αvβ6) [µM]
1 | O=C(O)C[C@H](CN1CC[C@](F)(CCc2ccc3c(n2)NCCC3)C1)c1cccc(N2CCOCC2)c1 [Example 2, (S)-4-(R)-(3-Fluoro-3-(2-(5,6,7,8-tetrahydro-1,8-naphthyridin-2-yl)ethyl)pyrrolidin-1-yl)-3-(3-morpholinophenyl)butanoic acid] | 0.0251 |  |  |  |  | 
2 | O=C(O)C[C@H](CN1CC[C@@](F)(CCc2ccc3c(n2)NCCC3)C1)c1cccc(N2CCOCC2)c1 [Example 4, (S)-4-(S)-(3-Fluoro-3-(2-(5,6,7,8-tetrahydro-1,8-naphthyridin-2-yl)ethyl)pyrrolidin-1-yl)-3-(3-morpholinophenyl)butanoic acid fumarate salt] |  | 0.1 |  |  |  | 
3 | O=C(O)C[C@H](CN1CC[C@@](F)(CCc2ccc3c(n2)NCCC3)C1)c1cc(N2CCOCC2)ccc1F [Example 5, (S)-4-((S)-3-Fluoro-3-(2-(5,6,7,8-tetrahydro-1,8-naphthyridin-2-yl)ethyl)pyrrolidin-1-yl)-3-(2-fluoro-5-morpholinophenyl)butanoic acid] | 0.0251 |  | 0.316 | 0.794 | 0.158 | 0.0158

The remaining lines, values ahead:

Row | IC50 (αvβ8) [µM] | IC50 (αvβ1; [1]) [µM] | IC50 (αvβ5) [µM] | IC50 (αvβ3) [µM] | IC50 (αvβ1; read-out: αvβ1 pIC50 (converted)) [µM] | IC50 (αvβ6) [µM] | Structure (SMILES)
4 |  | 0.0794 |  |  |  |  | O=C(O)C[C@H](CN1CC[C@@](F)(CCc2ccc3c(n2)NCCC3)C1)c1cccc(N2CCOCC2)c1 [Example 3, (S)-4-(S)-(3-Fluoro-3-(2-(5,6,7,8-tetrahydro-1,8-naphthyridin-2-yl)ethyl)pyrrolidin-1-yl)-3-morpholinophenyl)butanoic acid maleate salt]
5 | 0.0794 |  | 0.316 | 7.94 |  | 0.0251 | O=C(O)CC(CN1CC[C@](F)(CCc2ccc3c(n2)NCCC3)C1)c1cc(N2CCOCC2)ccc1F (stereo partly drawn) [Example 9, 4-((R)-3-Fluoro-3-(2-(5,6,7,8-tetrahydro-1,8-naphthyridin-2-yl)ethyl)pyrrolidin-1-yl)-3-(2-fluoro-5-morpholinophenyl)butanoic acid]
